Experimental data reported in patent publication US11452717B2, “Small molecule activators of nicotinamide phosphoribosyltransferase (NAMPT) and uses thereof” (Sanford Burnham Prebys Medical Discovery Institute, priority 2017, dated 2022).

Biological target: NAMPT enzyme (Homo sapiens (Human), UniProt P43490)
Assay: Enzyme Assay and NMN Detection (NAMPT reaction, fluorescence detection of NMN)
Assay type: biochemical
Conditions: NAMPT activation, NMN formation
In short: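 NMN formed was read at ex380/em460 after acetophenone/KOH derivatization and formic acid addition, using a same-day calibration curve. Final conditions: NAMPT 16 nM, nicotinamide 5 uM, PRPP 6.25 uM, ATP 120 uM, pyrophosphatase 0.04 U/ml, pH 7.5 HEPES buffer with MgCl2 and TCEP, 2 h at room temperature.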

Chain of NAMPT enzyme (P43490 whole entry, species assumed): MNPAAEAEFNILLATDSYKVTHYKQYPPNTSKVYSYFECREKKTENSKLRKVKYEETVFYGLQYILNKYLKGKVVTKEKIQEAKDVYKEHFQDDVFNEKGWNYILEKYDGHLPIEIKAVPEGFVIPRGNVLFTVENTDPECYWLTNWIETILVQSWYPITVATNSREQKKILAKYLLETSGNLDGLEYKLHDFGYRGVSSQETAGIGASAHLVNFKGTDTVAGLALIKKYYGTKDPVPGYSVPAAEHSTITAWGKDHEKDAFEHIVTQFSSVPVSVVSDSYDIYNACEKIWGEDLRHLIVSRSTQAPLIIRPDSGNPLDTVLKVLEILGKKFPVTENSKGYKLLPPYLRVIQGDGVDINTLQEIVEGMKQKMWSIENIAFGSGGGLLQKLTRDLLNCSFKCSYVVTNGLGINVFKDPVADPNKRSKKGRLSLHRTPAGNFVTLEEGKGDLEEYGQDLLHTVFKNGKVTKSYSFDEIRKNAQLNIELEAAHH

Structure (SMILES)	EC50 (Table B-2)	further results
CCOC(=O)c1ccc2c(cnn2C(=O)NCc2ccncc2)c1 [1-[(Pyridin-4-ylmethyl)-carbamoyl]-1H-indazole-5-carboxylic acid ethyl ester]	–	EC50 (Table B-3): > 20000 nM
O=C(NCc1cn[nH]c1)Nc1ccc(Nc2nc(-c3ccccc3Cl)cs2)cc1 [1-{4-[4-(2-Chloro-phenyl)-thiazol-2-ylamino]-phenyl}-3-(1H-pyrazol-4-ylmethyl)-urea]	–	EC50 (Table B-4): 5000 to 20000 nM
O=C(NCc1cn[nH]c1)Nc1ccc(Nc2nc(-c3ccccc3F)cs2)cc1 [1-{4-[4-(2-Fluoro-phenyl)-thiazol-2-ylamino]-phenyl}-3-(1H-pyrazol-4-ylmethyl)-urea]	–	EC50 (Table B-4): 100 to 2000 nM
O=C(NCc1cn[nH]c1)Nc1ccc(Nc2nc(-c3cccc(Cl)c3)cs2)cc1 [1-{4-[4-(3-Chloro-phenyl)-thiazol-2-ylamino]-phenyl}-3-(1H-pyrazol-4-ylmethyl)-urea]	–	EC50 (Table B-4): 2000 to 5000 nM
O=C(NCc1cn[nH]c1)Nc1ccc(Nc2nc(-c3cccc(F)c3)cs2)cc1 [1-{4-[4-(3-Fluoro-phenyl)-thiazol-2-ylamino]-phenyl}-3-(1H-pyrazol-4-ylmethyl)-urea]	–	EC50 (Table B-4): 100 to 2000 nM
O=C(NCc1cn[nH]c1)Nc1ccc(Nc2nc(-c3ccc(Cl)cc3)cs2)cc1 [1-{4-[4-(4-Chloro-phenyl)-thiazol-2-ylamino]-phenyl}-3-(1H-pyrazol-4-ylmethyl)-urea]	–	EC50 (Table B-4): 100 to 2000 nM
O=C(NCc1cn[nH]c1)Nc1ccc(Nc2nc(-c3ccc(F)cc3)cs2)cc1 [1-{4-[4-(4-Fluoro-phenyl)-thiazol-2-ylamino]-phenyl}-3-(1H-pyrazol-4-ylmethyl)-urea]	–	EC50 (Table B-4): 100 to 2000 nM
O=C(NCc1ccncc1)Nc1ccc(NS(=O)(=O)c2ccccc2Cl)cc1 [2-Chloro-N-[4-(3-pyridin-4-ylmethyl-ureido)-phenyl]-benzenesulfonamide]	< 100 nM	–
COc1ccccc1S(=O)(=O)Nc1ccc(NC(=O)NCc2ccncc2)cc1 [2-Methoxy-N-[4-(3-pyridin-4-ylmethyl-ureido)-phenyl]-benzenesulfonamide]	100 to 2000 nM	–
COC(=O)c1ccccc1CNS(=O)(=O)c1ccc(NC(=O)NCc2ccncc2)cc1 [2-{[4-(3-Pyridin-4-ylmethyl-ureido)-benzenesulfonylamino]-methyl}-benzoic acid methyl ester]	< 100 nM	–
O=C(NCc1ccncc1)Nc1cccc(C(=O)O)c1 [3-(3-(Pyridin-4-ylmethyl)ureido)benzoic acid]	> 20000 nM	–
O=C(NCc1ccncc1)Nc1ccc(NS(=O)(=O)c2cccc(Cl)c2)cc1 [3-Chloro-N-[4-(3-pyridin-4-ylmethyl-ureido)-phenyl]-benzenesulfonamide]	< 100 nM	–
COc1cccc(S(=O)(=O)Nc2ccc(NC(=O)NCc3ccncc3)cc2)c1 [3-Methoxy-N-[4-(3-pyridin-4-ylmethyl-ureido)-phenyl]-benzenesulfonamide]	< 100 nM	–
COC(=O)c1cccc(CNS(=O)(=O)c2ccc(NC(=O)NCc3ccncc3)cc2)c1 [3-{[4-(3-Pyridin-4-ylmethyl-ureido)-benzenesulfonylamino]-methyl}-benzoic acid methyl ester]	100 to 2000 nM	–
CCOC(=O)c1ccc(N2CCN(Cc3ccncc3)C2=O)cc1 [4-(2-Oxo-3-pyridin-4-ylmethyl-imidazolidin-1-yl)-benzoic acid ethyl ester]	–	EC50 (Table B-3): > 20000 nM
O=C(O)c1ccc(N2CCN(Cc3ccncc3)C2=O)cc1 [4-(2-oxo-3-pyridin-4-ylmethyl-imidazolidin-1-yl)-benzoic acid]	–	EC50 (Table B-3): > 20000 nM

Structure (SMILES)	EC50 (Table B-2)	further results
O=C(NCc1cn[nH]c1)Nc1ccc(C(=O)Nc2ccccc2Cl)cc1 [4-(3-((1H-pyrazol-4-yl)methyl)ureido)-N-(2-chlorophenyl)benzamide]	–	EC50 (Table B-1): 100 to 2000 nM
COc1ccccc1NC(=O)c1ccc(NC(=O)NCc2cn[nH]c2)cc1 [4-(3-((1H-pyrazol-4-yl)methyl)ureido)-N-(2-methoxyphenyl)benzamide]	–	EC50 (Table B-1): 100 to 2000 nM
COc1cccc(NC(=O)c2ccc(NC(=O)NCc3cn[nH]c3)cc2)c1 [4-(3-((1H-pyrazol-4-yl)methyl)ureido)-N-(3-methoxyphenyl)benzamide]	–	EC50 (Table B-1): 100 to 2000 nM
O=C(NCc1cn[nH]c1)Nc1ccc(C(=O)Nc2ccc(Cl)cc2)cc1 [4-(3-((1H-pyrazol-4-yl)methyl)ureido)-N-(4-chlorophenyl)benzamide]	–	EC50 (Table B-1): 100 to 2000 nM
COc1ccc(NC(=O)c2ccc(NC(=O)NCc3cn[nH]c3)cc2)cc1 [4-(3-((1H-pyrazol-4-yl)methyl)ureido)-N-(4-methoxyphenyl)benzamide]	–	EC50 (Table B-1): 100 to 2000 nM
O=C(NCc1ccncc1)Nc1ccc(C(=O)NCCN2CCCC2)cc1 [4-(3-(Pyridin-4-ylmethyl)ureido)-N-(2-(pyrrolidin-1-yl)ethyl)benzamide]	2000 to 5000 nM	–
O=C(NCc1ccncc1)Nc1ccc(C(=O)Nc2ccccc2OC(F)(F)F)cc1 [4-(3-(Pyridin-4-ylmethyl)ureido)-N-(2-(trifluoromethoxy)phenyl)benzamide]	100 to 2000 nM	–
Cc1cccc(NC(=O)c2ccc(NC(=O)NCc3ccncc3)cc2)c1 [4-(3-(Pyridin-4-ylmethyl)ureido)-N-(m-tolyl)benzamide]	100 to 2000 nM	–
Cc1ccccc1NC(=O)c1ccc(NC(=O)NCc2ccncc2)cc1 [4-(3-(Pyridin-4-ylmethyl)ureido)-N-(o-tolyl)benzamide]	100 to 2000 nM	–
Cc1ccc(NC(=O)c2ccc(NC(=O)NCc3ccncc3)cc2)cc1 [4-(3-(Pyridin-4-ylmethyl)ureido)-N-(p-tolyl)benzamide]	2000 to 5000 nM	–
O=C(NCc1ccncc1)Nc1ccc(C(=O)Nc2cccs2)cc1 [4-(3-(Pyridin-4-ylmethyl)ureido)-N-(thiophen-2-yl)benzamide]	2000 to 5000 nM	–
NC(=O)c1ccc(NC(=O)NCc2ccncc2)cc1 [4-(3-(Pyridin-4-ylmethyl)ureido)benzamide]	5000 to 20000 nM	–
O=C(NCc1ccncc1)Nc1ccc(C(=O)O)cc1 [4-(3-(Pyridin-4-ylmethyl)ureido)benzoic acid]	> 20000 nM	–
O=C(NCc1ccncc1)Nc1ccc(C(=O)Nc2cccc(OC(F)(F)F)c2)cc1 [4-(3-(pyridin-4-ylmethyl)ureido)-N-(3-(trifluoromethoxy)phenyl)benzamide]	2000 to 5000 nM	–
CCOC(=O)c1ccc(NC(=O)N(C)Cc2ccccc2)cc1 [4-(3-Benzyl-3-methyl-ureido)-benzoic acid ethyl ester]	–	EC50 (Table B-3): > 20000 nM

Further lines, with some results ahead:

EC50 (Table B-2)	Structure (SMILES)	further results
100 to 2000 nM	O=C(NCc1ccncc1)Nc1ccc(C(=O)Nc2ccc(OC(F)(F)F)cc2)cc1 [4-(3-(pyridin-4-ylmethyl)ureido)-N-(4-(trifluoromethoxy)phenyl)benzamide]	–
100 to 2000 nM	O=C(NCc1ccncc1)Nc1ccc(C(=O)Nc2cncnc2)cc1 [4-(3-(pyridin-4-ylmethyl)ureido)-N-(pyrimidin-5-yl)benzamide]	–
5000 to 20000 nM	O=C(NCc1ccncc1)Nc1ccc(C(=O)NC2CCOC2)cc1 (stereo not drawn) [4-(3-(pyridin-4-ylmethyl)ureido)-N-(tetrahydrofuran-3-yl)benzamide]	–
< 100 nM	O=C(NCc1ccncc1)Nc1ccc(S(=O)(=O)NC2CCCc3ccccc32)cc1 (stereo not drawn) [4-(3-Pyridin-4-ylmethyl-ureido)-N-(1,2,3,4-tetrahydro-naphthalen-1-yl)-benzenesulfonamide]	–
2000 to 5000 nM	O=C(NCc1ccncc1)Nc1ccc(S(=O)(=O)NCCN2CCCC2)cc1 [4-(3-Pyridin-4-ylmethyl-ureido)-N-(2-pyrrolidin-1-yl-ethyl)-benzensulfonamide]	–
< 100 nM	O=C(NCc1ccncc1)Nc1ccc(S(=O)(=O)NCc2ccccc2OC(F)(F)F)cc1 [4-(3-Pyridin-4-ylmethyl-ureido)-N-(2-trifluoromethoxy-benzyl)-benzenesulfonamide]	–
100 to 2000 nM	O=C(NCc1ccncc1)Nc1ccc(S(=O)(=O)NCc2ccccc2C(F)(F)F)cc1 [4-(3-Pyridin-4-ylmethyl-ureido)-N-(2-trifluoromethyl-benzyl)-benzenesulfonamide]	–
100 to 2000 nM	O=C(NCc1ccncc1)Nc1ccc(S(=O)(=O)NCc2cccc(OC(F)(F)F)c2)cc1 [4-(3-Pyridin-4-ylmethyl-ureido)-N-(3-trifluoromethoxy-benzyl)-benzenesulfonamide]	–
100 to 2000 nM	O=C(NCc1ccncc1)Nc1ccc(S(=O)(=O)NCc2cccc(C(F)(F)F)c2)cc1 [4-(3-Pyridin-4-ylmethyl-ureido)-N-(3-trifluoromethyl-benzyl)-benzenesulfonamide]	–
100 to 2000 nM	O=C(NCc1ccncc1)Nc1ccc(S(=O)(=O)NCc2ccc(OC(F)(F)F)cc2)cc1 [4-(3-Pyridin-4-ylmethyl-ureido)-N-(4-trifluoromethoxy-benzyl)-benzenesulfonamide]	–
100 to 2000 nM	O=C(NCc1ccncc1)Nc1ccc(S(=O)(=O)NCc2ccc(C(F)(F)F)cc2)cc1 [4-(3-Pyridin-4-ylmethyl-ureido)-N-(4-trifluoromethyl-benzyl)-benzenesulfonamide]	–
100 to 2000 nM	O=C(NCc1ccncc1)Nc1ccc(S(=O)(=O)NC2CCOC2)cc1 (stereo not drawn) [4-(3-Pyridin-4-ylmethyl-ureido)-N-(tetrahydro-furan-3-yl)-benzenesulfonamide]	–
100 to 2000 nM	Cc1cccc(NS(=O)(=O)c2ccc(NC(=O)NCc3ccncc3)cc2)c1 [4-(3-Pyridin-4-ylmethyl-ureido)-N-m-tolyl-benzenesulfonamide]	–
100 to 2000 nM	Cc1ccccc1NS(=O)(=O)c1ccc(NC(=O)NCc2ccncc2)cc1 [4-(3-Pyridin-4-ylmethyl-ureido)-N-o-tolyl-benzenesulfonamide]	–
100 to 2000 nM	Cc1ccc(NS(=O)(=O)c2ccc(NC(=O)NCc3ccncc3)cc2)cc1 [4-(3-Pyridin-4-ylmethyl-ureido)-N-p-tolyl-benzenesulfonamide]	–
5000 to 20000 nM	O=C(NCc1ccncc1)Nc1ccc(S(=O)(=O)Nc2ncccn2)cc1 [4-(3-Pyridin-4-ylmethyl-ureido)-N-pyrimidin-2-yl-benzenesulfonamide]	–
5000 to 20000 nM	O=C(NCc1ccncc1)Nc1ccc(S(=O)(=O)NC2CCNC2)cc1 (stereo not drawn) [4-(3-Pyridin-4-ylmethyl-ureido)-N-pyrrolidin-3-yl-benzenesulfonamide]	–
